Read-outs that look alike come from different tables or passages of the source.
Experiments:
Assay type in all cases: in vivo
Ctenocephalides felis [1] = experiment: Rapidity of action of topical compositions against flea infestation in cats (Example 1)
Procedure: In this example, a comparative study of the efficacy of nitenpyram (rapidity of action) administered topically, alone or in combination with fipronil, compared with fipronil administered alone, against cat fleas, was carried out.
It is a randomized, blind, controlled efficacy study carried out in parallel on 4 groups of six cats, according to the recommendations of the guidelines of the Committee for Veterinary Medicinal Products (CVMP): “Guidelines for the testing and evaluation of the efficacy of antiparasitic substances for the treatment and prevention of tick and flea infestations in dogs and cats”, EMEA/CVMP/005/00-FINAL-Rev.1.
The cats used in this study were male or female, adult domestic cats more than 6 months old, of mixed breeds, but mainly of short-hair European breed, weighing between 2 and 5 kg. […]
6 days before the beginning of the study (D=−6), all the cats were infested with approximately 100 laboratory fleas, strain Ctenocephalides felis, of male or female gender. The fleas were then counted on the day before the treatment (D=−1) and then at different times after application of the treatment (1, 4, 12 and 24 hours after treatment).
To do this, all the fleas present on an animal are harvested by combing the cat and then counting after combing. The number of live fleas is thus determined. […]

Ctenocephalides felis [2] = experiment: Supplementary study of efficacy over time after weekly flea re-infestation of cats (Example 3)
Procedure: In this example, a comparative study of the efficacy, over time, of nitenpyram administered topically, alone or in combination with fipronil, compared with fipronil administered alone, against cat fleas, was carried out. It is the continuation of the study of example 1 using compositions A, B and C.
At a regular interval after the first administration (D=0), all the cats were infested with approximately 100 laboratory fleas, strain Ctenocephalides felis, of male or female gender. The re-infestations were thus carried out at D=7, D=14, D=21, D=28, D=35, D=42, D=49, D=56 and D=63. The fleas were then counted various times after application of the treatment (at 2, 4 and 12 hours after re-infestation at D=7, D=14, D=21 and D=28; at 4, 8 and 12 hours after re-infestation at D=35 and D=42; at 12, 24 and 48 hours after re-infestation at D=49; at 24 and 48 hours after re-infestation at D=56 and, finally, at 48 hours after re-infestation at D=63).
To do this, all the fleas present on an animal were harvested by combing the cat, and then counted after combing. The number of live fleas is thus determined. After each count, the live fleas are put back on the cat. […]

[3] = Comparative pharmacokinetics of nitenpyram administered orally and topically to cats (Example 4); details: for Tmax: read-out: Tmax: time at which the maximum concentration of nitenpyram in the plasma is observed; for AUC: read-out: AUCtot: area under the curve of the nitenpyram concentration over time determined between t0 and the final measurement; for half-life: read-out: Thalf: half-life time (converted); for Cmax: read-out: Cmax: maximum amount of nitenpyram in the plasma
Procedure: In this example, a comparative study of the pharmacokinetics of nitenpyram administered topically and orally to cats was carried out.
The cats used in this study were prepared under the same conditions as those described in example 1.
It was verified, beforehand, that no trace of nitenpyram was detected in the plasma of the cats.
Ten young adult cats weighing between 2 and 6 kg are divided up into two groups: • a first group of 5 cats (female) received a single topical administration on the back between the shoulder blades at the beginning of the study; the topical composition is a solution containing 10% of nitenpyram (100 mg of nitenpyram per ml) and the amount administered is 0.5 ml per cat. • a second group (4 females and one male) received a single oral administration of the commercial product Capstar® given at the beginning of the study. The Capstar® product is a tablet comprising 11.4 mg of nitenpyram.
Blood samples were taken regularly, and centrifuged at 3000 rpm for 10 minutes at 4° C., the pellet is removed and the plasma is recovered for analysis.
The plasma concentration of nitenpyram is determined by the UPLC-MS/MS (Ultra-Performance Liquid Chromatography coupled to tandem mass spectrometry) method on an Acquity BEH C18 column and a Waters Quattro Premier XE mass […].

[4] = both sexes, in vivo, oral administration, Capstar tablet 11.4 mg nitenpyram
[5] = female, plasma, topical or ocular, 50 mg per cat, topical administration, 10% solution 0.5 ml per cat

## CCN(Cc1ccc(Cl)nc1)/C(=C/[N+](=O)[O-])NC [nitenpyram, (E)-N-(6-chloro-3-pyridylmethyl)-N-ethyl-N′-methyl-2-nitrovinylidenediamine]
Ctenocephalides felis [1]
  effect of topical administration on cat fleas: lethal effect on the cat fleas
Ctenocephalides felis [2]
  effect of topical administration on cat fleas: rapid and sustained lethal effect on cat fleas
[3]; both sexes, cat, in vivo, oral administration, Capstar tablet 11.4 mg nitenpyram
  Tmax: 1.3 h
[3]; [4]
  AUC: 76800 ng·h/mL
  half-life: 9.8 h
[3]; both sexes, in vivo, po, 11.4 mg, oral administration, Capstar tablet 11.4 mg nitenpyram
  Cmax: > 5800 ng/mL
[3]; female, in vivo, topical or ocular, 50 mg per cat, topical administration, 10% solution 0.5 ml per cat
  AUC: 86400 ng·h/mL
[3]; [5]
  Cmax: 1290 ng/mL
  half-life: 69.1 h
  Tmax: 15 h
[3]; oral, Capstar tablet
  tolerance of oral administration: well tolerated
[3]; topical vs oral
  half-life time administered topically relative to orally: more than 7 times
[3]; topical, 10% solution 0.5 ml per cat
  tolerance of topical administration: well tolerated locally

From patent US9131689B2, “Use of a 1-N-(halo-3-pyridylmethyl)-N-methylamino-1-alkylamino-2-nitroethylene derivative for preparing a topical veterinary pharmaceutical composition for combating external parasites” (priority 2007, dated 2015)
